Experimental data: patent US6737383B1, “Herbicidal oxadiazolidines” (priority 1999, dated 2004)

Tests used:
velvetleaf = assay: Test B pre/postemergence velvetleaf; type: in vivo, Abutilon theophrasti
In short: (§1)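 Test chemicals in a non-phytotoxic solvent mixture with surfactant were sprayed preemergence onto planted seeds and postemergence onto plants 2 to 18 cm tall (1- to 4-leaf stage). After twelve to sixteen days in a greenhouse, injury was visually rated against untreated controls from 0 (no effect) to 10 (complete control).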

morningglory = assay: Test B pre/postemergence morningglory; type: in vivo, Ipomoea hederacea
In short: as §1

surinam grass = assay: Test B pre/postemergence surinam grass; type: in vivo, Brachiaria decumbens
In short: as §1

smallflower flatsedge = assay: Test B flood test smallflower flatsedge; type: in vivo, Cyperus difformis
In short: (§2)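 Flood test on plants grown to the 2-leaf stage; treated plants kept in greenhouse twelve to sixteen days, then visually rated against controls on a 0 (no effect) to 10 (complete control) scale.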

blackgrass = assay: Test B pre/postemergence blackgrass; type: in vivo, Alopecurus myosuroides
In short: as §1

corn = assay: Test B pre/postemergence corn; type: in vivo, Zea mays
In short: as §1

rape = assay: Test B pre/postemergence rape; type: in vivo, Brassica napus
In short: as §1

wheat = assay: Test B pre/postemergence wheat; type: in vivo, Triticum aestivum
In short: as §1

rice = assay: Test B flood test rice; type: in vivo, Oryza sativa
In short: as §2

duck salad = assay: Test B flood test duck salad; type: in vivo, Heteranthera limosa
In short: as §2

giant foxtail = assay: Test B pre/postemergence giant foxtail; type: in vivo, Setaria faberii
In short: as §1

pigweed = assay: Test B pre/postemergence pigweed; type: in vivo, Amaranthus retroflexus
In short: as §1

sugar beet = assay: Test B pre/postemergence sugar beet; type: in vivo, Beta vulgaris
In short: as §1

crabgrass = assay: Test B pre/postemergence crabgrass; type: in vivo, Digitaria sanguinalis
In short: as §1

cocklebur = assay: Test B pre/postemergence cocklebur; type: in vivo, Xanthium strumarium
In short: as §1

purple nutsedge = assay: Test B pre/postemergence purple nutsedge; type: in vivo, Cyperus rotundus
In short: as §1

[1] = Postemergence, Rate 62 g/ha, scale 0 to 10, 0 is no effect, 10 is complete control
[2] = Postemergence, Rate 250 g/ha, scale 0 to 10, 0 no effect, 10 complete control
[3] = Preemergence, Rate 62 g/ha, scale 0 to 10 (0 no effect, 10 complete control)
[4] = Preemergence, Rate 125 g/ha, scale 0 to 10 (0 no effect, 10 complete control)
[5] = Preemergence, Rate 250 g/ha, scale of 0 to 10 where 0 is no effect and 10 is complete control
[6] = Preemergence, Rate 500 g/ha, scale 0 (no effect) to 10 (complete control)
[7] = Rate 125 g/ha, Postemergence, scale 0 to 10, 0 no effect, 10 complete control
[8] = Rate 500 g/ha, Postemergence, scale 0 to 10, 0 no effect, 10 complete control
[9] = Rate 125 g/ha, Postemergence section (flood test species), scale 0 to 10, 0 no effect, 10 complete control
[10] = Rate 500 g/ha, listed under Postemergence (flood test species), scale 0 to 10, 0 no effect, 10 complete control
[11] = flood test, listed under Postemergence, Rate 250 g/ha, scale 0 to 10, 0 no effect, 10 complete control

## Cc1nn(C)c(C)c1-n1c(=O)on(C(=O)N(c2ccc(F)cc2F)C(C)C)c1=O [Compound 76]
velvetleaf; [1]
  Velvetleaf plant response rating: 0
velvetleaf; [2]
  Velvetleaf plant response rating: 3
velvetleaf; [3]
  Velvetleaf plant response rating: 0
velvetleaf; [4]
  Plant response rating, Velvetleaf: 0
velvetleaf; [5]
  Plant response rating, Velvetleaf: 0
velvetleaf; [6]
  Velvetleaf plant response rating: 0
velvetleaf; [7]
  Velvetleaf plant response rating: 0
velvetleaf; [8]
  Velvetleaf plant response rating: 4
morningglory; [1]
  Morningglory plant response rating: 0
morningglory; [2]
  Morningglory plant response rating: 4
morningglory; [3]
  Morningglory plant response rating: 0
morningglory; [4]
  Plant response rating, Morningglory: 0
morningglory; [5]
  Plant response rating, Morningglory: 0
morningglory; [6]
  Morningglory plant response rating: 0
morningglory; [7]
  Morningglory plant response rating: 2
morningglory; [8]
  Morningglory plant response rating: 7
Surinam grass; [1]
  B. signalgrass plant response rating: 0
Surinam grass; [2]
  B. signalgrass plant response rating: 5
Surinam grass; [3]
  B. signalgrass plant response rating: 0
Surinam grass; [4]
  Plant response rating, B. signalgrass: 0
Surinam grass; [5]
  Plant response rating, B. signalgrass: 2
Surinam grass; [6]
  B. signalgrass plant response rating: 8
Surinam grass; [7]
  B. signalgrass plant response rating: 0
Surinam grass; Rate 500 g/ha, Postemergence, scale of 0 to 10 where 0 is no effect and 10 is complete control
  B. signalgrass plant response rating: 9
Smallflower flatsedge; [1]
  S. Flatsedge plant response rating: 0
Smallflower flatsedge; [9]
  S. Flatsedge plant response rating: 0
Smallflower flatsedge; [10]
  S. Flatsedge plant response rating: 0
Smallflower flatsedge; [11]
  S. Flatsedge plant response rating: 0
blackgrass; [1]
  Blackgrass plant response rating: 0
blackgrass; [2]
  Blackgrass plant response rating: 6
blackgrass; [3]
  Blackgrass plant response rating: 0
blackgrass; [4]
  Plant response rating, Blackgrass: 2
blackgrass; [5]
  Plant response rating, Blackgrass: 4
blackgrass; [6]
  Blackgrass plant response rating: 8
blackgrass; [7]
  Blackgrass plant response rating: 2
blackgrass; [8]
  Blackgrass plant response rating: 8
corn; [1]
  Corn plant response rating: 0
corn; [2]
  Corn plant response rating: 0
corn; [3]
  Corn plant response rating: 0
corn; [4]
  Plant response rating, Corn: 0
corn; [5]
  Plant response rating, Corn: 2
corn; [6]
  Corn plant response rating: 4
corn; [7]
  Corn plant response rating: 0
corn; [8]
  Corn plant response rating: 0
rape; [1]
  Rape plant response rating: 0
rape; [2]
  Rape plant response rating: 0
rape; [3]
  Rape plant response rating: 0
rape; [4]
  Plant response rating, Rape: 0
rape; [5]
  Plant response rating, Rape: 0
rape; [6]
  Rape plant response rating: 0
rape; [7]
  Rape plant response rating: 0
rape; [8]
  Rape plant response rating: 2
wheat; [1]
  Wheat plant response rating: 0
wheat; [2]
  Wheat plant response rating: 0
wheat; [3]
  Wheat plant response rating: 0
wheat; [4]
  Plant response rating, Wheat: 0
wheat; [5]
  Plant response rating, Wheat: 0
wheat; [6]
  Wheat plant response rating: 2
wheat; [7]
  Wheat plant response rating: 0
wheat; [8]
  Wheat plant response rating: 3
rice; [1]
  Rice plant response rating: 0
rice; [9]
  Rice plant response rating: 0
rice; [10]
  Rice plant response rating: 3
rice; [11]
  Rice plant response rating: 3
Duck salad; [1]
  Ducksalad plant response rating: 0
Duck salad; [9]
  Ducksalad plant response rating: 0
Duck salad; [10]
  Ducksalad plant response rating: 0
Duck salad; [11]
  Ducksalad plant response rating: 0
Giant foxtail; [1]
  Giant foxtail plant response rating: 3
Giant foxtail; [2]
  Giant foxtail plant response rating: 7
Giant foxtail; [3]
  Giant foxtail plant response rating: 4
Giant foxtail; [4]
  Plant response rating, Giant foxtail: 9
Giant foxtail; [5]
  Plant response rating, Giant foxtail: 9
Giant foxtail; [6]
  Giant foxtail plant response rating: 9
Giant foxtail; [7]
  Giant foxtail plant response rating: 4
Giant foxtail; [8]
  Giant foxtail plant response rating: 9
pigweed; [1]
  Redroot pigweed plant response rating: 0
pigweed; [2]
  Redroot pigweed plant response rating: 0
pigweed; [3]
  Redroot pigweed plant response rating: 0
pigweed; [4]
  Plant response rating, Redroot pigweed: 0
pigweed; [5]
  Plant response rating, Redroot pigweed: 3
pigweed; [6]
  Redroot pigweed plant response rating: 8
pigweed; [7]
  Redroot pigweed plant response rating: 0
pigweed; [8]
  Redroot pigweed plant response rating: 4
Sugar beet; [1]
  Sugarbeets plant response rating: 0
Sugar beet; [2]
  Sugarbeets plant response rating: 2
Sugar beet; [3]
  Sugarbeets plant response rating: 0
Sugar beet; [4]
  Plant response rating, Sugarbeets: 0
Sugar beet; [5]
  Plant response rating, Sugarbeets: 0
Sugar beet; [6]
  Sugarbeets plant response rating: 0
Sugar beet; [7]
  Sugarbeets plant response rating: 0
Sugar beet; [8]
  Sugarbeets plant response rating: 3
crabgrass; [1]
  Crabgrass plant response rating: 2
crabgrass; [2]
  Crabgrass plant response rating: 8
crabgrass; [3]
  Crabgrass plant response rating: 3
crabgrass; [4]
  Plant response rating, Crabgrass: 4
crabgrass; [5]
  Plant response rating, Crabgrass: 8
crabgrass; [6]
  Crabgrass plant response rating: 8
crabgrass; [7]
  Crabgrass plant response rating: 4
crabgrass; [8]
  Crabgrass plant response rating: 9
cocklebur; [1]
  Cocklebur plant response rating: 0
cocklebur; [2]
  Cocklebur plant response rating: 3
cocklebur; [3]
  Cocklebur plant response rating: 0
cocklebur; [4]
  Plant response rating, Cocklebur: 0
cocklebur; [5]
  Plant response rating, Cocklebur: 0
cocklebur; [6]
  Cocklebur plant response rating: 0
cocklebur; [7]
  Cocklebur plant response rating: 0
cocklebur; [8]
  Cocklebur plant response rating: 4
Purple nutsedge; [1]
  Nutsedge plant response rating: 0
Purple nutsedge; [2]
  Nutsedge plant response rating: 0
Purple nutsedge; [3]
  Nutsedge plant response rating: 0
Purple nutsedge; [4]
  Plant response rating, Nutsedge: 0
Purple nutsedge; [5]
  Plant response rating, Nutsedge: 0
Purple nutsedge; [6]
  Nutsedge plant response rating: 0
Purple nutsedge; [7]
  Nutsedge plant response rating: 0
Purple nutsedge; [8]
  Nutsedge plant response rating: 0
